The text below walks through data of patent US9187515B2, “2′,4′-fluoro nucleosides for the treatment of HCV” (Idenix Pharmaceuticals, Inc., priority 2013, dated 2015).

Data set [1] has as its target T1, wild-type HCV genotype 1b NS5B protein (recombinant HCV polymerase) (Hepatitis C virus genotype 1b, UniProt Q9WMX2).
T1 construct: HCV genotype 1b NS5B protein were used to generate recombinant HCV polymerases (with a deletion of the 21 carboxy terminal amino acids); made in house
In words: HCV polymerase enzyme assay, wild-type. The data set is classed as biochemical. The text has this: (§1) Test compounds in the form of nucleoside triphosphates were examined for inhibitory activity against purified HCV polymerase in a standard assay. Bacterial expression constructs encoding the approximately 65 kDa HCV genotype 1b NS5B protein were used to generate recombinant HCV polymerases (with a deletion of the 21 carboxy terminal amino acids). Both the wild-type genotype 1b protein and protein containing the S282T mutation were expressed and purified for use in the enzymatic activity assay.
(§2) The enzymatic activity assay measured the inhibitory effect of increasing concentrations of test compound on the incorporation of α-[^33P]-labeled nucleotide into trichloroacetic acid-precipitable material. Recombinant polymerase and synthetic RNA template were combined in reaction buffer containing ribonucleoside triphosphates, α-[^33P]-labeled nucleotide and eight concentrations of test compound in three-fold dilutions. […]
(§3) Reactions were terminated by the addition of ice-cold trichloroacetic acid and sodium pyrophosphate to promote precipitation of newly-synthesized ribonucleic acid. Precipitable material from the reactions was collected by filtration onto 96-well filter plates, washed extensively with water, and quantified by liquid scintillation.
(§4) The inhibitory activity of test compounds was determined by fitting results to dose-response curves using XLfit software.

The target of data set [2] is T2, HCV genotype 1b NS5B protein containing the S282T mutation (Hepatitis C virus genotype 1b, UniProt Q9WMX2, S2701T).
T2 construct: HCV genotype 1b NS5B protein were used to generate recombinant HCV polymerases (with a deletion of the 21 carboxy terminal amino acids); made in house
In words: HCV polymerase enzyme assay, S282T mutant. The format is biochemical. The conditions noted are these: nucleoside triphosphate; S282T genotype 1b NS5B; 2 h at 30° C.
Description: as §1, §2, §3, §4

For data set [3], the system named is HCV genotype 1b replicon in Huh-7-derived cell line (Zluc). Description: HCV replicon assay (luciferase reporter). The data set is classed as cell-based. The conditions noted are these: Hepatitis C virus; Zluc cells, 72 hours of incubation. As for the experimental part: Huh-7-derived cell line (Zluc) that harbors an HCV genotype 1b replicon and a luciferase reporter gene was grown in Dulbecco's Modified Eagle Medium (DMEM) supplemented with 10% fetal bovine serum, 2 mM GlutaMAX, 1% MEM nonessential amino acids, 100 IU/mL penicillin, 100 μg/mL streptomycin, and 0.5 mg/mL Geneticin® (G418). For dose response testing the cells were seeded in 96-well plates at 7.5×10^3 cells per well in a volume of 50 μL, and incubated at 37° C./5% CO2. Drug solutions were made up freshly in Huh-7 media as 2× stocks. Ten additional 5-fold dilutions were prepared from these stocks in DMEM without G418. At least three hours after Zluc cells were seeded, drug treatment was initiated by adding 50 μL of drug dilutions to the plates in duplicate. Final concentrations of drug ranged from 100 μM to 0.0000512 μM. Cells were then incubated at 37° C./5% CO2. Alternatively, compounds were tested at two concentrations (1 μM and 10 μM). […] For this, media was removed from the plates via gentle tapping. […] The plates were shaken gently for 3 min at room temperature and luminescence was measured on a Victor^3 V 1420 multilabel counter (Perkin Elmer) with a 1 second read time using a 700 nm cut-off filter. The EC50 values were calculated from dose response curves from the resulting best-fit equations determined by Microsoft Excel and XLfit 4.1 software. […]

The nature of data set [4]: Cytotoxicity evaluation, CellTiter-Blue Cell Viability Assay. The conditions noted are these: human, Zluc cells. The data set is classed as cell-based. Background: The colour change of resazurin is a common sign of viable cells or microbes.

For orientation: IC50 means the point on the concentration scale where inhibition reaches its midpoint. Broadly, the EC50 is the concentration needed to bring the measured effect to its halfway point. The CC50 is the concentration at which the toxic effect on the cells reaches its halfway point.

Some results are limits rather than exact numbers.

`O=c1ccn([C@@H]2O[C@](F)(COP(=O)(O)OP(=O)(O)OP(=O)(O)O)[C@@H](O)[C@H]2F)c(=O)[nH]1` [Compound 201]: the results for the concentration for half-maximal inhibition (IC50) in data set [1] and in data set [2] were 250 to 1000 nM and less than 250 nM, respectively.

Regarding `Nc1ccn([C@@H]2O[C@](F)(COP(=O)(O)OP(=O)(O)OP(=O)(O)O)[C@@H](O)[C@H]2F)c(=O)n1` [Compound 205], the IC50 in data set [1] and in data set [2] was less than 250 nM throughout.

Regarding `Nc1ccn([C@@H]2O[C@](F)(CO)[C@@H](O)[C@H]2F)c(=O)n1` [Compound 105], the half-maximal effective concentration (EC50) in data set [3] was 250 to 1000 nM. The compound further yielded a CC50 at 72 h in data set [4] of more than 50000 nM.

As for `O=c1ccn([C@@H]2O[C@](F)(CO)[C@@H](O)[C@H]2F)c(=O)[nH]1` [Compound 101, 1-((2R,3R,4S,5S)-3,5-difluoro-4-hydroxy-5-(hydroxymethyl)tetrahydrofuran-2-yl)pyrimidine-2,4(1H,3H)-dione], the concentration for a half-maximal effect (EC50) in data set [3] was more than 10000 nM. Also, the cytotoxic concentration (CC50) at 72 h in data set [4] is more than 50000 nM.
